Test results reported in US8017612B2, “Piperazine compound and use thereof as a HCV polymerase inhibitor” (priority 2006, dated 2011).
pIC50: −log10 of the molar value. Structures can show the parent of a compound that is named as a salt.

Columns and labels:
[1] = target: T1, HCV polymerase (NS5B) type 1a (Hepatitis C virus genotype 1a, UniProt P26664); test: Assay of enzyme (HCV polymerase) inhibitory activity, type 1a enzyme; assay type: biochemical, HCV type 1a (cloned from the blood of patients); conditions: HCV polymerase inhibitory activity (IC50), 1a, type 1a enzyme 1.5 μg/ml, 25° C., 60 min
T1 construct: made in house; host or cells: Escherichia coli (by the 'similar method' of the 1b enzyme)
In short: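 Patient-derived type 1a NS5B (C-terminal 47-aa deletion, His-tagged, E. coli-expressed) at 1.5 μg/ml was reacted with 5 μg/ml 3′UTR-containing substrate RNA, 50 μM ATP/GTP/CTP, 2 μM UTP plus [3H]UTP, pH 7.5, 25° C for 60 min. TCA-precipitated RNA radioactivity was counted; IC50 from ± compound.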

[2] = target: T2, HCV polymerase (NS5B) type 1b (Hepatitis C virus genotype 1b, UniProt P26663); test: Assay of enzyme (HCV polymerase) inhibitory activity, type 1b enzyme; assay type: biochemical, HCV BK strain (type 1b); conditions: HCV polymerase inhibitory activity (IC50), 1b, type 1b enzyme 0.5 μg/ml, 25° C., 60 min
T2 construct: a region encoding NS5B (J Virol 1991 March, 65(3), 1105-13, 544 amino acids after deletion of 47 amino acids on the C-terminal); 6xHis (C); made in house; host or cells: Escherichia coli
In short: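 NS5B from HCV BK strain (type 1b), C-terminal 47 aa deleted, C-terminal His6-tagged, E. coli-expressed, 0.5 μg/ml, with ~450 nt substrate RNA carrying the 3′ UTR (polyU, 3′X) at 5 μg/ml. Incubation 60 min at 25 °C with 50 μM ATP/GTP/CTP, 2 μM UTP plus [3H]UTP, pH 7.5 Tris.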

SMILES	pIC50 [1]	pIC50 [2]
CCC(F)(F)c1ccc(CNC(=O)[C@H]2CN(c3nc4nc[nH]c(=O)c4s3)CCN2S(=O)(=O)c2ccc(OC(F)(F)F)cc2)cc1 [Example 633, (R)-4-(7-oxo-6,7-dihydro-thiazolo[4,5-d]pyrimidin-2-yl)-1-(4-trifluoromethoxy-benzenesulfonyl)-piperazine-2-carboxylic acid 4-(1,1-difluoro-propyl)-benzylamide]	> 7.00	> 7.00
CCCn1ccc(CNC(=O)[C@H]2CN(C(C)=O)CCN2S(=O)(=O)c2ccc(OC(F)(F)F)cc2)cc1=O [Example 634, (R)-4-acetyl-1-(4-trifluoromethoxy-benzenesulfonyl)-piperazine-2-carboxylic acid (2-oxo-1-propyl-1,2-dihydro-pyridin-4-ylmethyl)-amide]	6.00 to 7.00	< 6.00
CCCc1ccc(CNC(=O)[C@H]2CN(C(C)=O)CCN2S(=O)(=O)c2ccc(OC(F)(F)F)cc2)cc1N [Example 635, (R)-4-acetyl-1-(4-trifluoromethoxy-benzenesulfonyl)-piperazine-2-carboxylic acid 3-amino-4-propyl-benzylamide]	< 6.00	6.00 to 7.00
COc1cccc(CNC(=O)[C@H]2CN(C(C)=O)CCN2S(=O)(=O)c2ccc(OC(F)(F)F)cc2)c1 [Example 636, (R)-4-acetyl-1-(4-trifluoromethoxy-benzenesulfonyl)-piperazine-2-carboxylic acid 3-methoxy-benzylamide]	< 6.00	< 6.00
CC(=O)N1CCN(S(=O)(=O)c2ccc(OC(F)(F)F)cc2)[C@@H](C(=O)NCc2cccc(O)c2)C1 [Example 637, (R)-4-acetyl-1-(4-trifluoromethoxy-benzenesulfonyl)-piperazine-2-carboxylic acid 3-hydroxy-benzylamide]	< 6.00	< 6.00
CCC(F)(F)c1ccc(CNC(=O)[C@H]2CN(c3cnc(CN)c(N)n3)CCN2S(=O)(=O)c2ccc(OC(F)(F)F)cc2)cc1 [Example 638, (R)-6′-amino-5′-aminomethyl-4-(4-trifluoromethoxy-benzenesulfonyl)-3,4,5,6-tetrahydro-2H-[1,2′]bipyrazinyl-3-carboxylic acid 4-(1,1-difluoro-propyl)-benzylamide]	> 7.00	> 7.00
O=C(NCc1nc2ccccc2o1)[C@H]1CN(c2cnc3cncnc3n2)CCN1S(=O)(=O)c1ccc(OC(F)(F)F)cc1 [Example 639, (R)-4-pteridin-7-yl-1-(4-trifluoromethoxy-benzenesulfonyl)-piperazine-2-carboxylic acid (benzoxazol-2-ylmethyl)-amide]	< 6.00	6.00 to 7.00
CCC(F)(F)c1ccc(CNC(=O)[C@H]2CN(c3nc4nn[nH]c(=O)c4s3)CCN2S(=O)(=O)c2ccc(OC(F)(F)F)cc2)cc1 [Example 640, (R)-4-(4-oxo-3,4-dihydro-thiazolo[4,5-d][1,2,3]triazin-6-yl)-1-(4-trifluoromethoxy-benzenesulfonyl)-piperazine-2-carboxylic acid 4-(1,1-difluoro-propyl)-benzylamide]	> 7.00	> 7.00
CC(=O)N1CCN(S(=O)(=O)c2ccc(OC(F)(F)F)cc2)[C@@H](C(=O)NCc2ccc(C(C)(C)C#N)cc2)C1 [Example 641, (R)-4-acetyl-1-(4-trifluoromethoxy-benzenesulfonyl)-piperazine-2-carboxylic acid 4-(cyano-dimethyl-methyl)-benzylamide]	6.00 to 7.00	6.00 to 7.00
CC(=O)N1CCN(S(=O)(=O)c2ccc(OC(F)(F)F)cc2)[C@@H](C(=O)NCc2ccccc2-c2ccccc2)C1 [Example 642, (R)-4-acetyl-1-(4-trifluoromethoxy-benzenesulfonyl)-piperazine-2-carboxylic acid (biphenyl-2-ylmethyl)-amide]	< 6.00	< 6.00
CC(=O)N1CCN(S(=O)(=O)c2ccc(OC(F)(F)F)cc2)[C@@H](C(=O)NCC2CCCCC2)C1 [Example 643, (R)-4-acetyl-1-(4-trifluoromethoxy-benzenesulfonyl)-piperazine-2-carboxylic acid cyclohexylmethyl-amide]	< 6.00	< 6.00
CC(=O)N1CCN(S(=O)(=O)c2ccc(OC(F)(F)F)cc2)[C@@H](C(=O)NCC2CCN(C(=O)OC(C)(C)C)CC2)C1 [Example 644, 4-({[(R)-4-acetyl-1-(4-trifluoromethoxy-benzenesulfonyl)-piperazine-2-carbonyl]-amino}-methyl)-piperidine-1-carboxylic acid tert-butyl ester]	< 6.00	< 6.00
COc1ccc(CNC(=O)[C@H]2CN(C(C)=O)CCN2S(=O)(=O)c2ccc(OC(F)(F)F)cc2)cc1O [Example 645, (R)-4-acetyl-1-(4-trifluoromethoxy-benzenesulfonyl)-piperazine-2-carboxylic acid 3-hydroxy-4-methoxy-benzylamide]	< 6.00	< 6.00
CCCc1ccc(CNC(=O)[C@H]2CN(C(C)=O)CCN2S(=O)(=O)c2ccc(OC(F)(F)F)cc2)c(=O)[nH]1 [Example 646, (R)-4-acetyl-1-(4-trifluoromethoxy-benzenesulfonyl)-piperazine-2-carboxylic acid (2-oxo-6-propyl-1,2-dihydro-pyridin-3-ylmethyl)-amide]	< 6.00	< 6.00
CCC(F)(F)c1ccc(CNC(=O)[C@H]2CN(c3nc4nsnc4nc3O)CCN2S(=O)(=O)c2ccc(OC(F)(F)F)cc2)cc1 [Example 647, (R)-4-(6-hydroxy-[1,2,5]thiadiazolo[3,4-b]pyrazin-5-yl)-1-(4-trifluoromethoxy-benzenesulfonyl)-piperazine-2-carboxylic acid 4-(1,1-difluoro-propyl)-benzylamide]	< 6.00	6.00 to 7.00
CCC(F)(F)c1ccc(CNC(=O)[C@H]2CN(c3cnc4cnccc4n3)CCN2S(=O)(=O)c2ccc(OC(F)(F)F)cc2)cc1 [Example 648, (R)-4-pyrido[3,4-b]pyrazin-2-yl-1-(4-trifluoromethoxy-benzenesulfonyl)-piperazine-2-carboxylic acid 4-(1,1-difluoro-propyl)-benzylamide]	> 7.00	> 7.00
COc1nc(CNC(=O)[C@H]2CN(C(C)=O)CCN2S(=O)(=O)c2ccc(OC(F)(F)F)cc2)ccc1C [Example 649, (R)-4-acetyl-1-(4-trifluoromethoxy-benzenesulfonyl)-piperazine-2-carboxylic acid (6-methoxy-5-methyl-pyridin-2-ylmethyl)-amide]	< 6.00	< 6.00
CCC(F)(F)c1ccc(CNC(=O)[C@H]2CN(c3cnc4c(n3)NS(=O)(=O)NC4)CCN2S(=O)(=O)c2ccc(OC(F)(F)F)cc2)cc1 [Example 650, (R)-4-(2,2-dioxo-1,2,3,4-tetrahydro-2λ^6-pyrazino[2,3-c][1,2,6]thiadiazin-7-yl)-1-(4-trifluoromethoxy-benzenesulfonyl)-piperazine-2-carboxylic acid 4-(1,1-difluoro-propyl)-benzylamide]	6.00 to 7.00	> 7.00
CCOc1ccc(CNC(=O)[C@H]2CN(c3cnc4cncnc4n3)CCN2S(=O)(=O)c2ccc(OC(F)(F)F)cc2)cc1 [Example 651, (R)-4-pteridin-7-yl-1-(4-trifluoromethoxy-benzenesulfonyl)-piperazine-2-carboxylic acid 4-ethoxy-benzylamide]	> 7.00	> 7.00
O=C(NCc1ccc(-c2cccs2)cc1)[C@H]1CN(c2cnc3cncnc3n2)CCN1S(=O)(=O)c1ccc(OC(F)(F)F)cc1 [Example 652, (R)-4-pteridin-7-yl-1-(4-trifluoromethoxy-benzenesulfonyl)-piperazine-2-carboxylic acid 4-thiophen-2-yl-benzylamide]	> 7.00	> 7.00
O=C(NCc1ccc(Br)cc1)[C@H]1CN(c2cnc3cncnc3n2)CCN1S(=O)(=O)c1ccc(OC(F)(F)F)cc1 [Example 653, (R)-4-pteridin-7-yl-1-(4-trifluoromethoxy-benzenesulfonyl)-piperazine-2-carboxylic acid 4-bromo-benzylamide]	> 7.00	> 7.00
CC(=O)N1CCN(S(=O)(=O)c2ccc(OC(F)(F)F)cc2)[C@@H](C(=O)NCC2CCNCC2)C1 [Example 654, (R)-4-acetyl-1-(4-trifluoromethoxy-benzenesulfonyl)-piperazine-2-carboxylic acid (piperidin-4-ylmethyl)-amide hydrochloride]	< 6.00	< 6.00
CC(=O)N1CCN(S(=O)(=O)c2ccc(OC(F)(F)F)cc2)[C@@H](C(=O)NCc2ccc(Br)cc2)C1 [Example 655, (R)-4-acetyl-1-(4-trifluoromethoxy-benzenesulfonyl)-piperazine-2-carboxylic acid 4-bromo-benzylamide]	6.00 to 7.00	6.00 to 7.00
O=C(NCc1ccc(C2CC2)cc1)[C@H]1CN(c2cnc3cncnc3n2)CCN1S(=O)(=O)c1ccc(OC(F)(F)F)cc1 [Example 656, (R)-4-pteridin-7-yl-1-(4-trifluoromethoxy-benzenesulfonyl)-piperazine-2-carboxylic acid 4-cyclopropyl-benzylamide]	> 7.00	> 7.00
